From patent US20250282768A1 (Janssen Pharmaceutica NV, priority 2022, published 2025) come the findings set out here.

Molecules are shown by their SMILES.

The test has as its system p-IKKa levels in L363 (NIK translocated multiple myeloma) cells. Put plainly: Assay 2: Effect of compounds on p-IKKa levels in L363 (NIK translocated multiple myeloma) cells. The class given is cell-based. The following applies: Homo sapiens, L-363, 6 h, read-out: Assay 2 IC50 (nM), p-IKKa (Ser 176/180) in BAFF stimulated L363 cells with MG132, 6 h; average if tested more than once. An outline of the steps: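 Read-out is p-IKKa Ser176/180 by AlphaLISA SureFire in lysates. Cells were BAFF-primed (250 ng/ml) overnight or left unstimulated, then exposed 6 h at 37 °C to compound with MG132 (10 μM), 0.3% DMSO. IC50 from sigmoidal curve fit, normalized between stimulated and unstimulated controls.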

For the compound `CN1CC[C@@](O)(c2cc(-c3cccc(-c4ccnc(N[C@@H]5CC6CCC5O6)n4)n3)no2)C1=O` (stereo partly drawn) [Example 361, (3R)-3-(3-(6-(2-(((cis)-7-Oxabicyclo[2.2.1]heptan-2-yl)amino)pyrimidin-4-yl)pyridin-2-yl)isoxazol-5-yl)-3-hydroxy-1-methylpyrrolidin-2-one], the IC50 was 50 to 500 nM.

Take `CO[C@@H](C)CNc1nccc(-c2cccc(-c3cc([C@]4(O)CCN(C)C4=O)on3)n2)n1` [Example 362, (R)-3-Hydroxy-3-(3-(6-(2-(((S)-2-methoxypropyl)amino)pyrimidin-4-yl)pyridin-2-yl)isoxazol-5-yl)-1-methylpyrrolidin-2-one]: the IC50 fell in the range of 50 to 500 nM.

As to `C[C@@H](Nc1nccc(-c2cccc(-c3cc([C@]4(O)CCN(C)C4=O)on3)n2)n1)c1ccccn1` [Example 363, (R)-3-Hydroxy-1-methyl-3-(3-(6-(2-(((R)-1-(pyridin-2-yl)ethyl)amino)pyrimidin-4-yl)pyridin-2-yl)isoxazol-5-yl)pyrrolidin-2-one], the IC50 fell in the range of 50 to 500 nM.

In the case of `CN1CC[C@@](O)(c2cc(-c3cccc(-c4ccnc(NCCF)n4)n3)no2)C1=O` [Example 364, (R)-3-(3-(6-(2-((2-Fluoroethyl)amino)pyrimidin-4-yl)pyridin-2-yl)isoxazol-5-yl)-3-hydroxy-1-methylpyrrolidin-2-one], the IC50 was in the range of 50 to 500 nM.

With `CN1CC[C@@](O)(c2cc(-c3cccc(-c4ccnc(NC5CCN(CC(F)F)C5)n4)n3)no2)C1=O` (stereo partly drawn) [Example 365, (3R)-3-(3-(6-(2-((1-(2,2-Difluoroethyl)pyrrolidin-3-yl)amino)pyrimidin-4-yl)pyridin-2-yl)isoxazol-5-yl)-3-hydroxy-1-methylpyrrolidin-2-one], the IC50 was over 500 nM.

With `COCC1CC(Nc2nccc(-c3cccc(-c4cc([C@]5(O)CCN(C)C5=O)on4)n3)n2)CO1` (stereo partly drawn) [Example 366, (3R)-3-Hydroxy-3-(3-(6-(2-((5-(methoxymethyl)tetrahydrofuran-3-yl)amino)pyrimidin-4-yl)pyridin-2-yl)isoxazol-5-yl)-1-methylpyrrolidin-2-one], the IC50 fell in the range of 50 to 500 nM.

With `CN1CC[C@@](O)(c2cc(-c3cccc(-c4ccnc(NCc5ccn(C)n5)n4)n3)no2)C1=O` [Example 367, (R)-3-Hydroxy-1-methyl-3-(3-(6-(2-(((1-methyl-1H-pyrazol-3-yl)methyl)amino)pyrimidin-4-yl)pyridin-2-yl)isoxazol-5-yl)pyrrolidin-2-one], the IC50 fell in the range of 50 to 500 nM.

On to `CN1CC[C@@](O)(c2cc(-c3cccc(-c4ccnc(NCc5cnn(C)c5)n4)n3)no2)C1=O` [Example 368, (R)-3-Hydroxy-1-methyl-3-(3-(6-(2-(((1-methyl-1H-pyrazol-4-yl)methyl)amino)pyrimidin-4-yl)pyridin-2-yl)isoxazol-5-yl)pyrrolidin-2-one], for which the IC50 was in the range of 50 to 500 nM.

With `C[C@@H](Nc1nccc(-c2cccc(-c3cc([C@]4(O)CCN(C)C4=O)on3)n2)n1)c1ncc[nH]1` [Example 369, (R)-3-(3-(6-(2-(((R)-1-(1H-Imidazol-2-yl)ethyl)amino)pyrimidin-4-yl)pyridin-2-yl)isoxazol-5-yl)-3-hydroxy-1-methylpyrrolidin-2-one], the IC50 was over 500 nM.

Turning to `C[C@H](Nc1nccc(-c2cccc(-c3cc([C@]4(O)CCN(C)C4=O)on3)n2)n1)c1ncc[nH]1` [Example 370, (R)-3-(3-(6-(2-(((S)-1-(1H-Imidazol-2-yl)ethyl)amino)pyrimidin-4-yl)pyridin-2-yl)isoxazol-5-yl)-3-hydroxy-1-methylpyrrolidin-2-one], the IC50 is over 500 nM.

Turning to `CC(Nc1nccc(-c2cccc(-c3cc([C@]4(O)CCN(C)C4=O)on3)n2)n1)c1ncco1` (stereo partly drawn) [Example 371, (3R)-3-Hydroxy-1-methyl-3-(3-(6-(2-((1-(oxazol-2-yl)ethyl)amino)pyrimidin-4-yl)pyridin-2-yl)isoxazol-5-yl)pyrrolidin-2-one], the IC50 was in the range of 50 to 500 nM.

With `CC(Nc1nccc(-c2cccc(-c3cc([C@]4(O)CCN(C)C4=O)on3)n2)n1)c1cnco1` (stereo partly drawn) [Example 372, (3R)-3-Hydroxy-1-methyl-3-(3-(6-(2-((1-(oxazol-5-yl)ethyl)amino)pyrimidin-4-yl)pyridin-2-yl)isoxazol-5-yl)pyrrolidin-2-one], the IC50 was 50 to 500 nM.

Regarding `CC(Nc1nccc(-c2cccc(-c3cc([C@]4(O)CCN(C)C4=O)on3)n2)n1)c1cocn1` (stereo partly drawn) [Example 373, (3R)-3-Hydroxy-1-methyl-3-(3-(6-(2-((1-(oxazol-4-yl)ethyl)amino)pyrimidin-4-yl)pyridin-2-yl)isoxazol-5-yl)pyrrolidin-2-one], the IC50 was in the range of 50 to 500 nM.

For `C[C@H](Nc1nccc(-c2cccc(-c3cc([C@]4(O)CCN(C)C4=O)on3)n2)n1)c1cccnc1` [Example 374, (R)-3-Hydroxy-1-methyl-3-(3-(6-(2-(((S)-1-(pyridin-3-yl)ethyl)amino)pyrimidin-4-yl)pyridin-2-yl)isoxazol-5-yl)pyrrolidin-2-one], the IC50 is 50 to 500 nM.

Regarding `C[C@@H](Nc1nccc(-c2cccc(-c3cc([C@]4(O)CCN(C)C4=O)on3)n2)n1)c1cccnc1` [Example 375, (R)-3-Hydroxy-1-methyl-3-(3-(6-(2-(((R)-1-(pyridin-3-yl)ethyl)amino)pyrimidin-4-yl)pyridin-2-yl)isoxazol-5-yl)pyrrolidin-2-one], the IC50 was in the range of 50 to 500 nM.

Take `C[C@H](Nc1nccc(-c2cccc(-c3cc([C@]4(O)CCN(C)C4=O)on3)n2)n1)c1ccccn1` [Example 376, (R)-3-Hydroxy-1-methyl-3-(3-(6-(2-(((S)-1-(pyridin-2-yl)ethyl)amino)pyrimidin-4-yl)pyridin-2-yl)isoxazol-5-yl)pyrrolidin-2-one]: the IC50 was in the range of 50 to 500 nM.

Turning to `CC(Nc1nccc(-c2cccc(-c3cc([C@]4(O)CCN(C)C4=O)on3)n2)n1)c1ncccn1` (stereo partly drawn) [Example 377, (3R)-3-Hydroxy-1-methyl-3-(3-(6-(2-((1-(pyrimidin-2-yl)ethyl)amino)pyrimidin-4-yl)pyridin-2-yl)isoxazol-5-yl)pyrrolidin-2-one], the IC50 is over 500 nM.

For the compound `CC(Nc1nccc(-c2cccc(-c3cc([C@]4(O)CCN(C)C4=O)on3)n2)n1)c1cn(C)cn1` (stereo partly drawn) [Example 378, (3R)-3-Hydroxy-1-methyl-3-(3-(6-(2-((1-(1-methyl-1H-imidazol-4-yl)ethyl)amino)pyrimidin-4-yl)pyridin-2-yl)isoxazol-5-yl)pyrrolidin-2-one], the IC50 fell in the range of 50 to 500 nM.

For the compound `Cc1cc(C(C)Nc2nccc(-c3cccc(-c4cc([C@]5(O)CCN(C)C5=O)on4)n3)n2)n[nH]1` (stereo partly drawn) [Example 379, (3R)-3-Hydroxy-1-methyl-3-(3-(6-(2-((1-(5-methyl-1H-pyrazol-3-yl)ethyl)amino)pyrimidin-4-yl)pyridin-2-yl)isoxazol-5-yl)pyrrolidin-2-one], the IC50 was 50 to 500 nM.

On to `Cc1cc([C@@H](C)Nc2nccc(-c3cccc(-c4cc([C@]5(O)CCN(C)C5=O)on4)n3)n2)no1` [Example 380, (R)-3-Hydroxy-1-methyl-3-(3-(6-(2-(((R)-1-(5-methylisoxazol-3-yl)ethyl)amino)pyrimidin-4-yl)pyridin-2-yl)isoxazol-5-yl)pyrrolidin-2-one], for which the IC50 was in the range of 50 to 500 nM.

For `Cc1cnc(C(C)Nc2nccc(-c3cccc(-c4cc([C@]5(O)CCN(C)C5=O)on4)n3)n2)o1` (stereo partly drawn) [Example 381, (3R)-3-Hydroxy-1-methyl-3-(3-(6-(2-((1-(5-methyloxazol-2-yl)ethyl)amino)pyrimidin-4-yl)pyridin-2-yl)isoxazol-5-yl)pyrrolidin-2-one], the IC50 fell in the range of 50 to 500 nM.

For `Cc1cc(C(C)Nc2nccc(-c3cccc(-c4cc([C@]5(O)CCN(C)C5=O)on4)n3)n2)on1` (stereo partly drawn) [Example 382, (3R)-3-Hydroxy-1-methyl-3-(3-(6-(2-((1-(3-methylisoxazol-5-yl)ethyl)amino)pyrimidin-4-yl)pyridin-2-yl)isoxazol-5-yl)pyrrolidin-2-one], the IC50 lay within 50 to 500 nM.

For the compound `C[C@@H](Nc1nccc(-c2cccc(-c3cc([C@]4(O)CCN(C)C4=O)on3)n2)n1)c1cnnn1C` [Example 383, (R)-3-Hydroxy-1-methyl-3-(3-(6-(2-(((R)-1-(1-methyl-1H-1,2,3-triazol-5-yl)ethyl)amino)pyrimidin-4-yl)pyridin-2-yl)isoxazol-5-yl)pyrrolidin-2-one], the IC50 was in the range of 50 to 500 nM.

For the compound `C[C@H](Nc1nccc(-c2cccc(-c3cc([C@]4(O)CCN(C)C4=O)on3)n2)n1)c1cnnn1C` [Example 384, (R)-3-Hydroxy-1-methyl-3-(3-(6-(2-(((S)-1-(1-methyl-1H-1,2,3-triazol-5-yl)ethyl)amino)pyrimidin-4-yl)pyridin-2-yl)isoxazol-5-yl)pyrrolidin-2-one], the IC50 lay in the range of 50 to 500 nM.

Consider `Cc1nnc(C(C)Nc2nccc(-c3cccc(-c4cc([C@]5(O)CCN(C)C5=O)on4)n3)n2)o1` (stereo partly drawn) [Example 385, (3R)-3-Hydroxy-1-methyl-3-(3-(6-(2-((1-(5-methyl-1,3,4-oxadiazol-2-yl)ethyl)amino)pyrimidin-4-yl)pyridin-2-yl)isoxazol-5-yl)pyrrolidin-2-one], for which the IC50 fell in the range of 50 to 500 nM.

As to `CN1CC[C@@](O)(c2cc(-c3cccc(-c4ccnc(N[C@H](CO)c5ccccc5)n4)n3)no2)C1=O` [Example 386, (R)-3-Hydroxy-3-(3-(6-(2-(((S)-2-hydroxy-1-phenylethyl)amino)pyrimidin-4-yl)pyridin-2-yl)isoxazol-5-yl)-1-methylpyrrolidin-2-one], the IC50 lay in the range of 50 to 500 nM.

With `CN1CC[C@@](O)(c2cc(-c3cccc(-c4ccnc(N[C@@H](CO)c5ccccn5)n4)n3)no2)C1=O` [Example 387, (R)-3-Hydroxy-3-(3-(6-(2-(((R)-2-hydroxy-1-(pyridin-2-yl)ethyl)amino)pyrimidin-4-yl)pyridin-2-yl)isoxazol-5-yl)-1-methylpyrrolidin-2-one], the IC50 was over 500 nM.
